Assay: Stability of DOTA mono-NHS in water by 1H NMR (rate of change in the ratio Afree/Abound)
Type: physicochemical
Conditions: neutral pH, read-out: half-life for hydrolysis
Excerpt: For example, ^1H NMR spectra, such as that illustrated in FIG. 1, were used to measure the ratio of the areas (Afree/Abound) of the ^1H NMR signal corresponding to NHS free in solution (δfree −2.6 ppm; Free NHS), relative to the signal corresponding to NHS covalently bound to DOTA (δbound −2.85 ppm; Bound NHS). […] Similar results were obtained by measuring the relative areas of the ^13C signals corresponding to free and bound NHS (δbound −25.5 ppm and δfree −25.2 ppm; FIG. 2).
Similar to that described above, the NMR data was used to estimate the percentage of free NHS. […] The stability of DOTA mono-NHS in water was also assessed using ^1H NMR by measuring the rate of change in the ratio Afree/Abound at neutral pH.

O=C(O)CN1CCN(CC(=O)O)CCN(CC(=O)ON2C(=O)CCC2=O)CCN(CC(=O)O)CC1 [DOTA mono-NHS, 1,4,7,10-tetraazacyclododecane-1,4,7,10-tetra(aceticacid)-10-mono(N-hydroxysuccinimidyl ester)] gave a half-life of ~30 min.

Reference: patent publication US6838557B1, “Process for making a chelating agent for labeling biomolecules using preformed active esters” (Board of Regents The University of Texas System, priority 2002, dated 2005)
